Assay [1] deals with P. digitatum. Description: Effect of pH and bicarbonate concentration on decay of oranges. Type of assay: in vivo, Penicillium digitatum.
Assay [2] has as its system sour rot (Geotrichum Candidum). In words: Effect of treatments on sour rot decay of lemons. In kind it is in vivo.
In assay [3] the test system is Green Mold. In words: Washing of oranges inoculated with Green Mold, decay. Type of assay: in vivo, Penicillium digitatum. As to conditions: oranges infected by green mold; four groups of 25; pressure washer, or soak tank for soda ash, sodium bicarbonate.
Assay [4] has as its system P. digitatum. Description: Immersion washing of oranges with various solutions, decay. Type of assay: in vivo, Penicillium digitatum.
Assay [5] deals with P. digitatum (M6R strain). In words: SOPP, sodium bicarbonate & chlorine treatment, navel orange decay control. Type of assay: in vivo, Penicillium digitatum.
Assay [6] relates to P. digitatum. To be noted: fresh oranges and lemons; pressure washing; FIG. 6.
In assay [7] the test system is Green Mold. To be noted: 35 seconds, 2 weeks at 50° F.
Assay [8] concerns Green Mold. To be noted: 35 seconds, 2 weeks at 50° F. This is another data set of the same source.
Assay [9] relates to P. digitatum (M6R strain). Description: High pressure washing of inoculated navel oranges with sodium hypochlorite solution, no bicarbonate. In kind it is in vivo, Penicillium digitatum. To be noted: 2 weeks at 55° F.; for % Fruit Decay (Average): navel oranges; for Total Decay: number of decayed navel oranges; for No decay: number of navel oranges without decay.
The test system of assay [10] is P. digitatum. To be noted: lemons inoculated 48 hours before treatment; immersion; cited from earlier work.
The subject of assay [11] is P. digitatum isolate M6R. To be noted: oranges, 1 or 3% wt/vol, 200 micrograms/ml free NaOCl, pH 8.3, controls 97%.
Assay [12] relates to P. digitatum isolate M6R. To be noted: lemons, 1 or 3% wt/vol, 200 micrograms/ml free NaOCl, pH 8.3, controls 97%.
The mark [13] stands for this setting: first set of data, four groups of 25.
The mark [14] stands for this setting: second set of data, dipping, pH 11.4, alone.
Where [15] appears, read: second set of data, four groups of 25.
Setting [16] is: pressure washer (100 psi), navel oranges, replicates R1-R4, 2 weeks at 55° F., listed as Chlorine @ 200 ppm.
The mark [17] stands for this setting: second set of data, dipping, pH 7.5, alone.
Where [18] appears, read: high pressure (about 300 psi) wash.
The mark [19] stands for this setting: low pressure (about 95 psi) wash.

Several values for one entry are separate records, joined by “and”; a condition that tells them apart may be missing. Equal entries are not always repeated. Where two headings read alike, the source gives them in different places.

In the case of `O=C([O-])[O-].[Na+].[Na+]` [0.15 M soda ash, pH 11.4, sodium carbonate], the “Mean Decay (%)” value in assay [1] (setting [13]) and in assay [1] (setting [14]) was 31.000% in each case.
With `[Na+].[O-]Cl` [NaOCl 200 ppm pH 7.5 alone at 80° F., sodium hypochlorite], the “Mean Decay (%)” value in [2] (setting [13]) worked out at 18.112%; in assay [2] (setting [15]) it was 18.112%; in assay [3] it was 17.000%.
As for `CC/C=C\CC1C(=O)CCC1CC(=O)OC` (stereo not shown) [Methyl jasmenate, high rate, Methyl jasmenate], the “Mean Decay (%)” value is reported as 100.000% in assay [1] (setting [13]) and 100.000% in assay [1] (second set of data, dipping).
As for `[O][Cl+][O-]` [Oxine 75 ppm alone at 80° F., chlorine dioxide], the “Mean Decay (%)” value in [2] (first set of data, four groups of 25, 80° F.) is given as 22.338%; in [2] (second set of data, four groups of 25, listed as Oxine 75 ppm 80° F.), 22.358%; in assay [3], 14.000%.
In the case of `[Na+].[O-]Cl` [HOCl 200 ppm alone, sodium hypochlorite], the “Mean Decay (%)” value in assay [4] (immersion, oranges, mean of four samples of 25) was 88.000%. Further, in [5] (100 psi wash, navel oranges (Table 10)), the “Mean Decay (%)” value is reported as 99.3% (a). Further, the “Decay Control (%)” value in [5] (100 psi wash, navel oranges, relative to inoculated control) was determined as 0.0%. The “% Decay, Mean %” value in assay [5] (pressure washer (100 psi), navel oranges, mean of four replicates) was found to be 99.3%. For the same compound, in assay [5] (setting [16]), the “# Decay” value was 105 and 104 and 95 and 98; the “# Healthy” value was 0 and 1 (3×); the “% Decay” value was 100.0% and 99.0% (3×).
As to `O=C([O-])O.[Na+]` [BCB 1% alone, sodium bicarbonate], in assay [4] (in vivo), the “Mean Decay (%)” value was 13.000%.
Take `OCl` [HOCl pH 7.5, HOCl]: the “Mean Decay (%)” value is recorded as 99.000% in [1] (setting [13]) and 99.000% in [1] (second set of data, dipping, listed as HOCl pH 7.5 alone).
The compound `O=C([O-])O.[Na+]` [BCB 3% alone, sodium bicarbonate] had a decay control in [6] of roughly 100%. Moreover, the “Mean Decay (%)” value in assay [4] (in vivo) was 7.000%.
As to `O=C([O-])O.[Na+]` [0.3 M sodium bicarbonate, pH 7.5, sodium bicarbonate], the “Mean Decay (%)” value in assay [1] (setting [13]) and in assay [1] (setting [17]) was 41.000% throughout.
With `O=C([O-])[O-].[Na+].[Na+]` [Soda ash 3% w/v at 80° F., sodium carbonate], in assay [7] (no pressure washing, dip), the “Decay (%) Oranges” value is recorded as 13.0%. In addition, the “Mean Decay (%)” value in assay [2] (setting [13]) came to 10.638%; in [2] (setting [15]) it was 10.856%; in [3], 11.000%. For the same compound, the “Decay (%) Lemons” value in assay [8] (no pressure washing, dip) is recorded as 6.8%.
For `[Na+].[O-]Cl` [High Cl, sodium hypochlorite], in [9] (setting [18]), the “% Fruit Decay (Average)” value is on record as 97.5%, the “Total Decay” value is listed as 197 and the No decay stood at 5. In assay [9] (setting [19]), the “% Fruit Decay (Average)” value was 98%, the “Total Decay” value is given as 196 and the No decay came out at 4.
For `OCl` [HOCl pH 11.4, HOCl], the “Mean Decay (%)” value in [1] (setting [13]) and in assay [1] (setting [14]) was 95.000% each time.
On to `[Na+].[O-]Cl` [Low Cl, sodium hypochlorite], for which, in [9] (setting [18]), the “% Fruit Decay (Average)” value was 98.5%, the “Total Decay” value is 201 and the No decay amounted to 3. In assay [9] (setting [19]), the “% Fruit Decay (Average)” value turned out to be 99.5%, the “Total Decay” value was determined as 199 and the No decay is 1.
Regarding `[O][Cl+][O-]` [Oxine 3-6 ppm alone at 80° F., chlorine dioxide], the “Mean Decay (%)” value turned out to be 21.710% in assay [2] (first set of data, four groups of 25, listed as Oxine 3-8 ppm, 80° F.); 21.710% in [2] (second set of data, four groups of 25, listed as Oxine 5-8 ppm 80° F.); 14.000% in assay [3].
Consider `O=C([O-])[O-].[Na+].[Na+]` [sodium carbonate], for which the “reduction of incidence of infections from wounds” value in assay [10] is on record as “more than 90%”.
For `O=C([O-])O.[Na+]` [BCB 0.5% alone, sodium bicarbonate], the “Decay (%) Oranges” value is listed as 76.3% in assay [7] (high pressure washing); 82.7% in assay [7] (low pressure washing); 56.9% in [7] (no pressure washing, dip). Further, the “Decay (%) Lemons” value was 55.3% in assay [8] (high pressure washing); 66.2% in assay [8] (low pressure washing); 45.1% in [8] (no pressure washing, dip). Moreover, the “Mean Decay (%)” value in [4] (in vivo) amounted to 27.000%.
`[O][Cl+][O-]` [Oxine 200 ppm alone at 80° F., chlorine dioxide]: the “Mean Decay (%)” value in assay [2] (first set of data, four groups of 25, listed as Ozine 200 ppm, alone 80° F.) is given as 10.818%; in assay [2] (second set of data, four groups of 25, listed as Oxine 200 ppm 80° F.), 10.878%; in [3] it was 18.000%.
In the case of `OCl` [HOCl pH 8.4, HOCl], the “Mean Decay (%)” value in assay [1] (setting [13]) turned out to be 99.000%; in [1] (second set of data, dipping, listed as HOCl pH 8.4 alone) it was 99.000%.
For the compound `O=C([O-])[O-].[Na+].[Na+]` [0.3 M soda ash, pH 11.4, sodium carbonate], the “Mean Decay (%)” value in assay [1] (setting [13]) and in assay [1] (setting [14]) was 10.000% in each case.
With `O=C([O-])O.[Na+]` [0.3 M sodium bicarbonate, pH 8.4, sodium bicarbonate], the “Mean Decay (%)” value in [1] (setting [13]) was 43.000%; in assay [1] (second set of data, dipping, pH 8.4, alone), 43.000%.
In the case of `O=C([O-])O.[Na+]` [BCB 0.25% alone, sodium bicarbonate], the “Mean Decay (%)” value in [4] (in vivo) is on record as 46.000%.
Turning to `O=C([O-])O.[Na+]` [sodium bicarbonate], the mean decay in [11] (HPSW at 2150 kPa (320 psi)) is 20%; in [12] (HPSW at 2150 kPa (320 psi)), 17%. The entries for the “mean incidence of decay” value in assay [11] (tank treatment 35 seconds) and in assay [12] (tank treatment 35 seconds) were 19% and 22%, respectively.
Turning to `O=C([O-])O.[Na+]` [0.15 M sodium bicarbonate, pH 7.5, sodium bicarbonate], the “Mean Decay (%)” value in assay [1] (setting [13]) and in assay [1] (setting [17]) was 65.000% each time.

The record behind these values is US20020110602A1, “Method and apparatus for washing produce” (priority 2000, published 2002).
